In paper PMC7366380, “Discovery of a Potent and Selective Covalent Inhibitor and Activity-Based Probe for the Deubiquitylating Enzyme UCHL1, with Antifibrotic Activity” (Journal of the American Chemical Society, 2020):
“And” between values parts separate entries of the source, which are not always exact repeats. Identical values can stand only once.

What was measured:
Test in all cases: In-cell proteome-wide competitive ABPP, HEK293: other DUBs and proteins
[1] = molecular target: T1, DUBs and other proteins in HEK293 cells (Homo sapiens, UniProt Q9Y5K5); details: replicates A-C; for Log2 reporter intensity values: UCHL5: competition with ABP 2, DMSO substract (FC); for Log2 reporter intensity values: UCHL5, DMSO subtracted
T1 sequence (Q9Y5K5 1-329): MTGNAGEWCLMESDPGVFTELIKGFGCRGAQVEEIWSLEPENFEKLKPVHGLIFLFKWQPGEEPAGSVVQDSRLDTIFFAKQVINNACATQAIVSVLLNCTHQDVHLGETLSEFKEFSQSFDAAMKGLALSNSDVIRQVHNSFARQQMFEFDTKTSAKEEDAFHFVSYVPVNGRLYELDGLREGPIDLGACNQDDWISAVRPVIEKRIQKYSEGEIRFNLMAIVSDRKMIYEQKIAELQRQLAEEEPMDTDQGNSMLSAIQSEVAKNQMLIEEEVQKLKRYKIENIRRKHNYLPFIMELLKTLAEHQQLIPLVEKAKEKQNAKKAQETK

[2] = molecular target: T2, DUBs and other proteins in HEK293 cells (Homo sapiens, UniProt Q96RU2); details: replicates A-C; for Log2 reporter intensity values: USP28: competition with ABP 2, DMSO substract (FC); for Log2 reporter intensity values: USP28, DMSO subtracted
T2 sequence (Q96RU2 1-1077): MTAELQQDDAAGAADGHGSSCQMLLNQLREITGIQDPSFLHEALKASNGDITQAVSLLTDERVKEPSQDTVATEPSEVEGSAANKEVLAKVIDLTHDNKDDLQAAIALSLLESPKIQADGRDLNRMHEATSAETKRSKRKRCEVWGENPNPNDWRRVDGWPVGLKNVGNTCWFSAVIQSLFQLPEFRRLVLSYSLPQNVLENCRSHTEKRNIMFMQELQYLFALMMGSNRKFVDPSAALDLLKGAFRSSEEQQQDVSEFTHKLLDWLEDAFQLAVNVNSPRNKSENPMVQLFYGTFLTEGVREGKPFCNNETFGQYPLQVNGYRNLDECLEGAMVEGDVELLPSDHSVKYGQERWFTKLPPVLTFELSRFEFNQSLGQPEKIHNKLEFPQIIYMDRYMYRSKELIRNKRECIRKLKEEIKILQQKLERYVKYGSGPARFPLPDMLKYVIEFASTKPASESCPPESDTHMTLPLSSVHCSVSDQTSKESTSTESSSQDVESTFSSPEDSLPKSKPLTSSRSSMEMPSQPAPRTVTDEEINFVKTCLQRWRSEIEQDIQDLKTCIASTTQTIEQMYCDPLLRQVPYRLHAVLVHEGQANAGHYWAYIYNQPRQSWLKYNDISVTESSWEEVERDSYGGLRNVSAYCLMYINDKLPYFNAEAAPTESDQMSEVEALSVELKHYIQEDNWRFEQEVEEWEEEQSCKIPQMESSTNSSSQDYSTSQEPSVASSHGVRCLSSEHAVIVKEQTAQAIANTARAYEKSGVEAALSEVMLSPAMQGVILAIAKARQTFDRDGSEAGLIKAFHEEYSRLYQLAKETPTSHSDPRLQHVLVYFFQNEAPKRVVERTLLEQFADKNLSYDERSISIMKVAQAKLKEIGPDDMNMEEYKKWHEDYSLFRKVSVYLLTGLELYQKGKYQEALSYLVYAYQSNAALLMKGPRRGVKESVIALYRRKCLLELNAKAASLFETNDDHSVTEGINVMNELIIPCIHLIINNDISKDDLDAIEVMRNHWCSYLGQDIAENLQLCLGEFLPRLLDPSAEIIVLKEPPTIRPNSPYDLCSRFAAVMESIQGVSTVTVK

[3] = molecular target: DUBs and other proteins in HEK293 cells (Homo sapiens, UniProt O00303); details: for Log2 reporter intensity values, EIF3F: TMT replicates; for Log2 reporter intensity values: EIF3F: competition with ABP 2, DMSO substract (FC); for Log2 reporter intensity values: EIF3F / Log2 reporter intensity values: replicates A-C; for Log2 t-test Difference / Log2 reporter intensity values: EIF3F
[4] = molecular target: T3, DUBs and other proteins in HEK293 cells (Homo sapiens, UniProt P45974); details: replicates A-C; for Log2 reporter intensity values: USP5: DMSO substract (FC); for Log2 reporter intensity values: USP5, DMSO subtracted
T3 sequence (P45974 1-858): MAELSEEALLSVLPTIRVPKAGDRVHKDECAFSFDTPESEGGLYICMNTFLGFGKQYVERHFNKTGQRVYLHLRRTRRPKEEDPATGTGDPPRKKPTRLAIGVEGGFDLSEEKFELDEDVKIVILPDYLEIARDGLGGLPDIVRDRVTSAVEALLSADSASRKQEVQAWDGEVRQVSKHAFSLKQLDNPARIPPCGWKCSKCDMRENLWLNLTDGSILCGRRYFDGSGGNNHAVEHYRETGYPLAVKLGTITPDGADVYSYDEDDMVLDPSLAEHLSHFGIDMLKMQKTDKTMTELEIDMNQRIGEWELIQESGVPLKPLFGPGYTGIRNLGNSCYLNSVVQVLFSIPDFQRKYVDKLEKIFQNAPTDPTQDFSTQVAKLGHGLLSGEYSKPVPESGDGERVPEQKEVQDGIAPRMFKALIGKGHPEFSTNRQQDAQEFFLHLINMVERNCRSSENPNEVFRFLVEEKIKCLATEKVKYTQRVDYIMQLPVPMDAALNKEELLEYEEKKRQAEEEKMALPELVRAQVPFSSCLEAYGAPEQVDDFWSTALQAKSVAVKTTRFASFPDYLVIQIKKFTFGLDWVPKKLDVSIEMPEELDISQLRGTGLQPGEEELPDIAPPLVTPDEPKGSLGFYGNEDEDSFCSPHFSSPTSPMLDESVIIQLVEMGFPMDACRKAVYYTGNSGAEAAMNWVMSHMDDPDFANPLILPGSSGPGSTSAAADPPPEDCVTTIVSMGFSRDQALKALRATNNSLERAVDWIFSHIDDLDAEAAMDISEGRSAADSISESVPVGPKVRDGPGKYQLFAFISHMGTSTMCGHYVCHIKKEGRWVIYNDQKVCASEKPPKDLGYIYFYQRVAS

DUBs and other proteins in HEK293 cells (Homo sapiens, UniProt O00303), sequence (O00303 whole entry): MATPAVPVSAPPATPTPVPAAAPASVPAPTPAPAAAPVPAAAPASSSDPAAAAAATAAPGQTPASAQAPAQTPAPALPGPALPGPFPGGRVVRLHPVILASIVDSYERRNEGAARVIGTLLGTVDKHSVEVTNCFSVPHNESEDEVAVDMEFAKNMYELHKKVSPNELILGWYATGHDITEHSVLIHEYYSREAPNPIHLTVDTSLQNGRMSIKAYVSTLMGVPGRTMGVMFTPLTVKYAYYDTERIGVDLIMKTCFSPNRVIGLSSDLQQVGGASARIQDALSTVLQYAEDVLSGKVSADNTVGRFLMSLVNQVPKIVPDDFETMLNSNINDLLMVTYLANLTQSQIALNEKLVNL

## N#CN1CCC[C@@H]1C(=O)N1CCc2c(-c3c[nH]c4ncccc34)cccc21 [Compound 3]
[1]; 3 at 1 μM
  Log2 reporter intensity values: UCHL5: 1.151 and 1.125 and 1.14
  Log2 reporter intensity values: 0.2029 and 0.1696 and 0.1893
[1]; 3 at 4 μM
  Log2 reporter intensity values: UCHL5: 0.8761 and 0.9259 and 0.9496
  Log2 reporter intensity values: -0.1908 and -0.1111 and -0.07454
[1]; 3_1 μM
  Log2 reporter intensity values: 0.1503 and 0.124 and 0.1395
[1]; 3_4 μM
  Log2 reporter intensity values: -0.1246 and -0.07482 and -0.05103
[2]; 3 at 1 μM
  Log2 reporter intensity values: USP28: 1.351 and 1.11 and 0.8433
  Log2 reporter intensity values: 0.4339 and 0.1505 and -0.246
[2]; 3 at 4 μM
  Log2 reporter intensity values: USP28: 0.6356 and 0.4265 and 0.9775
  Log2 reporter intensity values: -0.6539 and -1.229 and -0.03288
[2]; 3_1 μM
  Log2 reporter intensity values: 0.3111 and 0.07023 and -0.1965
[2]; 3_4 μM
  Log2 reporter intensity values: -0.4041 and -0.6132 and -0.06225
[3]; 1 μM 3 (60 min) + 20 nM ABP 2 (10 min), All values
  Log2 reporter intensity values, EIF3F: 0.01809 and -0.02026 and 0.07981
[3]; 1 μM 3 (60 min) + 20 nM ABP 2 (10 min), DMSO subtracted
  Log2 reporter intensity values, EIF3F: 0.02764 and -0.01071 and 0.08936
[3]; 4 μM 3 (60 min) + 20 nM ABP 2 (10 min), All values
  Log2 reporter intensity values, EIF3F: -0.1978 and 0.02104 and -0.01378
[3]; 4 μM 3 (60 min) + 20 nM ABP 2 (10 min), DMSO subtracted
  Log2 reporter intensity values, EIF3F: -0.1882 and 0.03059 and -0.004226
[3]; 3 at 1 μM
  Log2 reporter intensity values: EIF3F: 1.019 and 0.9926 and 1.064
[3]; 3 at 4 μM
  Log2 reporter intensity values: EIF3F: 0.8777 and 1.021 and 0.9971
[3]; 3 - 1 μM
  Log2 t-test Difference: -0.05527
[3]; 3 - 4 μM
  Log2 t-test Difference: -0.1447
[3]; 3_1 μM, DMSO subtracted
  Log2 reporter intensity values: 0.01893 and -0.007817 and 0.06348
[3]; 3_4 μM, DMSO subtracted
  Log2 reporter intensity values: -0.1227 and 0.02101 and -0.003343
[3]; 3 at 1 μM, DMSO subtracted
  Log2 reporter intensity values: 0.02764 and -0.01071 and 0.08936
[3]; 3 at 4 μM, DMSO subtracted
  Log2 reporter intensity values: -0.1882 and 0.03059 and -0.004226
[4]; 3 at 1 μM, competition with ABP 2
  Log2 reporter intensity values: USP5: 0.9394 and 0.9901 and 0.9848
[4]; 3 at 4 μM, competition with ABP 2
  Log2 reporter intensity values: USP5: 1.005 and 1.031 and 1.063
[4]; 3_1 μM
  Log2 reporter intensity values: -0.06093 and -0.01022 and -0.01553
[4]; 3_4 μM
  Log2 reporter intensity values: 0.004396 and 0.03114 and 0.06231
[4]; 3 at 1 μM
  Log2 reporter intensity values: -0.0902 and -0.01435 and -0.02211
[4]; 3 at 4 μM
  Log2 reporter intensity values: 0.006795 and 0.04469 and 0.08765

## C#Cc1cnc2[nH]cc(-c3cccc4c3CCN4C(=O)[C@@H]3CCCN3C#N)c2c1 [Compound 2]
[4]; 20 nM ABP 2 alone
  Log2 reporter intensity values: USP5: 0.9172 and 0.9432 and 0.9583
[4]; 20 nM ABP 2
  Log2 reporter intensity values: -0.1247 and -0.08438 and -0.06148 and -0.08313 and -0.05714
